For this test, the target named is NTS1R (Homo sapiens, UniProt P30989). The test is described as follows: Radiochemical association and dissociation of [^3H]13 at membranes of CHO-hNTS1R cells. It is filed as binding. To be noted: GppNHp. As to the method:
These experiments were performed in 96-well plates using the same procedure as for radiochemical binding experiments with intact suspended cells, but using cell membranes instead of whole cells. Binding of [^3H]13 to the NTS1R was saturable (Figure 6A). […] To note, in addition to GppNHp, saponin (100 μg/mL) was added to the samples to improve ligand permeabilization into vesicles that are likely to occur in membrane preparations. The association curve of [^3H]13 obtained from experiments with cell membranes (Figure 6B) was considerably different compared to the association curve observed for intact suspended cells (cf. Figure 4C). The biphasic character almost disappeared and with a kon value of 0.13 ± 0.05 nM^–1 min^–1 (calculated value ± propagated error) the association was slower compared to the initial phase found for experiments with intact cells (kon = 0.81 nM^–1 min^–1, cf. Table 3). […]
CHO-hNTS1R cells were grown on 175 cm^2 cell culture dishes (ref 83.3903, Sarstedt) to ca. 90% confluency. […] The protein concentration was determined according to the Bradford method[59] in transparent 96-well plates (Greiner Cellstar 655180, Greiner Bio-One, Frickenhausen, Germany) using bovine serum albumin as standard. […]

NTS1R, sequence (P30989 whole entry): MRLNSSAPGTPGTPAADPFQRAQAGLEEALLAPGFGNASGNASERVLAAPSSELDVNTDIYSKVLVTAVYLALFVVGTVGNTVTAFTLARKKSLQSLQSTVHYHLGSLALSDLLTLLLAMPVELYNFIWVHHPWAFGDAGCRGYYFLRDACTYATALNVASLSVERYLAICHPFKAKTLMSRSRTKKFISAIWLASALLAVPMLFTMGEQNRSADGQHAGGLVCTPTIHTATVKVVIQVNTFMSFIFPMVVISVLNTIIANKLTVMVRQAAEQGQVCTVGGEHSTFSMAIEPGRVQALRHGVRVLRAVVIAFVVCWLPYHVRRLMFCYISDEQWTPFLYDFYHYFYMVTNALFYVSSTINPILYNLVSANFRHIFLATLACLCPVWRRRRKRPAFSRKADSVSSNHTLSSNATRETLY

Turning to `CCC(=O)NCCCCNC(=O)NC(=N)NCCC[C@H](NC(=O)[C@@H]1CCCN1C(=O)[C@@H](NC(=O)CCc1cn(CCCNC(=O)c2ccc(-c3c4ccc(=[N+](C)C)cc-4oc4cc(N(C)C)ccc34)c(C(=O)[O-])c2)nn1)C1CCNCC1)C(=O)N[C@@H](CCCNC(=N)N)C(=O)N1CCC[C@H]1C(=O)N[C@@H](Cc1ccc(O)cc1)C(=O)N[C@H](C(=O)N[C@@H](CC(C)C)C(=O)O)[C@@H](C)CC` [[^3H]13], for the setting “23 °C”, the koff – broadly, a measure of how fast the partners let go of each other – was 0.00617 s⁻¹. Moreover, under “calculated value ± propagated error”, the kon (commonly a measure of how fast the partners come together) is 2.17e+06 M⁻¹ s⁻¹.

The values above are taken from paper PMC11440508, “Dually Labeled Neurotensin NTS1R Ligands for Probing Radiochemical and Fluorescence-Based Binding Assays” (Journal of Medicinal Chemistry, 2024).
